This passage reports IC50 results from patent US8273773B2 (priority 2008, dated 2012).

pIC50: −log10 of the molar value. Read-outs that look alike come from different tables or passages of the source.

The target of the test is T1, HCV polymerase (NS5B570n-Con1) (Hepatitis C virus genotype 1b, UniProt Q9WMX2).
T1 construct: contains a 21 amino acid deletion at the C-terminus relative to the full-length HCV polymerase; 6-histidine (N); made in house; host or cells: E. coli strain BL21(DE) pLysS (pET17b)
Description: biochemical. Further details: species or system HCV Con1 strain.

Where [1] appears, read: read-out: IC50 HCV NS5B RNA Polymerase Assay, values without asterisk, 20 nM NS5B570n-Con1 enzyme, 20 nM cIRES RNA template.
Where [2] appears, read: IC50 HCV NS5B RNA Polymerase Assay (values with asterisk), values with asterisk: cIRES RNA template, 3 nM NS5B570n-Con1.
[3] abbreviates: IC50 HCV NS5B RNA Polymerase Assay, values without asterisk, 20 nM NS5B570n-Con1 enzyme, 20 nM cIRES RNA template.
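Further: recombinant His-tagged enzyme from E. coli, radiolabeled nucleotide incorporation into acid-insoluble RNA read by scintillation after filtration, no-enzyme background subtracted, activity relative to positive control.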

By pIC50 is commonly meant the negative decadic logarithm of the IC50, by convention in mol/L. In the case of `COc1c(/C=C/c2ccc(N)nc2)cc(-c2cc(F)c[nH]c2=O)cc1C(C)(C)C` [I-174], the pIC50 under setting [1] was 7.92.

In the case of `COc1c(/C=C/c2ccc(NS(C)(=O)=O)cc2)cc(-c2ccc[nH]c2=O)cc1C1(OC)CC1` [I-266, N-(4-{(E)-2-[3-(1-methoxycyclopropyl)-5-(2-oxo-1,2-dihydropyridin-3-yl)-2-methoxyphenyl]vinyl}-phenyl)methanesulfonamide], the pIC50 under setting [2] was 8.52.

With `COc1c(NC(=O)c2ccc(N)nc2)cc(-c2ccc[nH]c2=O)cc1C(C)(C)C` [I-247, 6-Amino-N-[3-tert-butyl-2-methoxy-5-(2-oxo-1,2-dihydro-pyridin-3-yl)-phenyl]-nicotinamide], the pIC50 under setting [3] is 7.66.

In the case of `COc1c(/C=C/c2ccc(NS(=O)(=O)CC(F)(F)F)cc2)cc(-c2cc(F)c[nH]c2=O)cc1C(C)(C)C` [I-152], under setting [3], the pIC50 is 7.80.

Consider `COc1c(/C=C/c2ccccc2C(F)(F)F)cc(-c2ccc[nH]c2=O)cc1C(C)(C)C` [I-239, 3-{3-tert-Butyl-4-methoxy-5-[(E)-2-(2-trifluoromethyl-phenyl)-vinyl]-phenyl}-1H-pyridin-2-one], for which the pIC50 under setting [2] was 8.10.

With `O=C(O)c1ccc([N+](=O)[O-])cn1` [I-136], under “values without asterisk, 20 nM NS5B570n-Con1 enzyme, 20 nM cIRES RNA template, read-out: IC50 HCV NS5B RNA Polymerase Assay”, the pIC50 was 8.30.

`COc1c(C(=O)Nc2ccc(OCC(N)=O)cc2)cc(-c2ccc[nH]c2=O)cc1C(C)(C)C` [I-113, 3-tert-Butyl-N-(4-carbamoylmethoxy-phenyl)-2-methoxy-5-(2-oxo-1,2-dihydro-pyridin-3-yl)-benzamide] showed a pIC50 under setting [3] of 6.88.

As to `COC(=O)c1cc(NS(C)(=O)=O)ccc1/C=C/c1cc(-c2cc(F)c[nH]c2=O)cc(C(C)(C)C)c1OC` [I-186], the pIC50 under setting [2] was 8.40.

As for `COc1c(/C=C/c2ccc(NS(C)(=O)=O)cc2)cc(-c2ccc(C)[nH]c2=O)cc1C1(Cl)CC1` [I-265], the pIC50 under setting [2] is 8.30.

In turn, `COc1c(/C=C/c2ccc(NS(=O)(=O)CCCN3CCCC3)cc2)cc(-c2ccc(C)[nH]c2=O)cc1C(C)(C)C` [I-235, 3-Pyrrolidin-1-yl-propane-1-sulfonic acid (4-{(E)-2-[3-tert-butyl-2-methoxy-5-(6-methyl-2-oxo-1,2-dihydro-pyridin-3-yl)-phenyl]-vinyl}-phenyl)-amide] showed a pIC50 under setting [2] of 7.92.

The compound `COC(=O)c1ccccc1/C=C/c1cc(-c2ccc[nH]c2=O)cc(C(C)(C)C)c1OC` [I-242, 2-{(E)-2-[3-tert-Butyl-2-methoxy-5-(2-oxo-1,2-dihydro-pyridin-3-yl)-phenyl]-vinyl}-benzoic acid methyl ester] showed a pIC50 under setting [2] of 8.70.

In the case of `COc1c(C(=O)NC2CCC(NS(C)(=O)=O)CC2)cc(-c2ccc[nH]c2=O)cc1C(C)(C)C` (centres unmarked) [I-260, 3-tert-Butyl-N-(4-methanesulfonylamino-cyclohexyl)-2-methoxy-5-(2-oxo-1,2-dihydro-pyridin-3-yl)-benzamide], the pIC50 under setting [3] was 7.46.

`COc1c(NC(=O)c2ccc(N)cc2F)cc(-c2ccc[nH]c2=O)cc1C(C)(C)C` [I-280] gave a pIC50 under setting [3] of 8.00.

In the case of `COc1c(CCc2ccc(NS(C)(=O)=O)cc2)cc(-c2ccc[nH]c2=O)c(F)c1C(C)(C)C` [I-287, N-(4-{2-[3-tert-Butyl-4-fluoro-2-methoxy-5-(2-oxo-1,2-dihydro-pyridin-3-yl)-phenyl]-ethyl}-phenyl)-methanesulfonamide], under setting [3], the pIC50 was 8.05.

In turn, `COc1c(N(C)C(=O)c2ccc(NS(C)(=O)=O)cc2)cc(-c2ccc[nH]c2=O)cc1C(C)(C)C` [I-104, N-[3-tert-Butyl-2-methoxy-5-(2-oxo-1,2-dihydro-pyridin-3-yl)-phenyl]-4-methanesulfonylamino-N-methyl-benzamide] showed a negative logarithm of the IC50 (pIC50) under setting [3] of 6.97.

Under setting [2], `Cc1cc(-c2ccc[nH]c2=O)cc(C2(C)CCCC2)c1` [I-27] had a pIC50 of 5.27.

In turn, `COCc1cc(NS(C)(=O)=O)ccc1/C=C/c1cc(-c2ccc[nH]c2=O)cc(C(C)(C)C)c1OC` [I-206, N-(4-{E-2-[3-tert-Butyl-2-methoxy-5-(2-oxo-1,2-dihydro-pyridin-3-yl)-phenyl]-vinyl}-3-methoxymethyl-phenyl)-methanesulfonamide] gave a pIC50 under setting [2] of 8.70.

In turn, `COc1c(/C=C/c2ccc(NS(=O)(=O)CC3CC3)cc2)cc(-c2cc(F)c[nH]c2=O)cc1C(C)(C)C` [I-153] gave a pIC50 under setting [3] of 8.10.

Consider `COc1c(/C=C/c2ccc(N)nn2)cc(-c2ccc[nH]c2=O)cc1C(C)(C)C` [I-181], for which, under setting [3], the pIC50 is 8.10.

Consider `COc1c(/C=C/c2ccc(NS(C)(=O)=O)cc2)cc(-c2ccc(CC#N)[nH]c2=O)cc1C(C)(C)C` [I-224, N-(4-{(E)-2-[3-tert-Butyl-5-(6-cyanomethyl-2-oxo-1,2-dihydro-pyridin-3-yl)-2-methoxy-phenyl]-vinyl}-phenyl)-methanesulfonamide], for which the pIC50 under setting [2] was 8.40.

In turn, `Cc1cc(-c2ccc[nH]c2=O)cc(C2(C)CCC2)c1` [I-28] showed a pIC50 under setting [3] of 5.84.

With `COc1c(/C=C/c2ccccc2C#N)cc(-c2ccc[nH]c2=O)cc1C(C)(C)C` [I-238, 2-{(E)-2-[3-tert-Butyl-2-methoxy-5-(2-oxo-1,2-dihydro-pyridin-3-yl)-phenyl]-vinyl}-benzonitrile], under setting [2], the pIC50 was 8.70.

`COc1c(/C=C/c2ccc(NS(=O)(=O)C3CC3)cc2)cc(-c2cc(F)c[nH]c2=O)cc1C(C)(C)C` [I-155, Cyclopropanesulfonic acid (4-{(E)-2-[3-tert-butyl-5-(5-fluoro-2-oxo-1,2-dihydro-pyridin-3-yl)-2-methoxy-phenyl]-vinyl}-phenyl)-amide] had a pIC50 under setting [3] of 8.52.

For `COc1c(/C=C/c2ccc(NC(C)=O)cn2)cc(-c2cc(F)c[nH]c2=O)cc1C(C)(C)C` [I-169, N-(6-{(E)-2-[3-tert-Butyl-5-(5-fluoro-2-oxo-1,2-dihydro-pyridin-3-yl)-2-methoxy-phenyl]-vinyl}-pyridin-3-yl)-acetamide], the pIC50 under setting [3] was 7.54.

As to `COCCCS(=O)(=O)Nc1ccc(/C=C/c2cc(-c3cc(F)c[nH]c3=O)cc(C(C)(C)C)c2OC)cc1` [I-156], under setting [3], the pIC50 was 8.22.

With `COc1c(NC(=O)c2ccc(NC3CC3)nc2)cc(-c2ccc[nH]c2=O)cc1C(C)(C)C` [I-255, N-[3-tert-Butyl-2-methoxy-5-(2-oxo-1,2-dihydro-pyridin-3-yl)-phenyl]-6-cyclopropylamino-nicotinamide], under setting [3], the pIC50 is 7.15.

For `COc1c(/C=C/c2ccc(N)nn2)cc(-c2cc(F)c[nH]c2=O)cc1C(C)(C)C` [I-183], the pIC50 under setting [1] was 8.15.

Under setting [2], `COc1c(/C=C/c2ccncc2)cc(-c2ccc[nH]c2=O)cc1C(C)(C)C` [I-240, 3-[3-tert-Butyl-4-methoxy-5-((E)-2-pyridin-4-yl-vinyl)-phenyl]-1H-pyridin-2-one] had a pIC50 of 8.30.

`COCCOc1cc(NS(C)(=O)=O)ccc1C(=O)Nc1cc(-c2ccc[nH]c2=O)cc(C(C)(C)C)c1OC` [I-276, N-[3-tert-Butyl-2-methoxy-5-(2-oxo-1,2-dihydro-pyridin-3-yl)-phenyl]-4-methanesulfonylamino-2-(2-methoxy-ethoxy)-benzamide]: the pIC50 under setting [3] is 7.70.

`COC(=O)c1cc(NS(C)(=O)=O)ccc1CCc1cc(-c2cc(F)c[nH]c2=O)cc(C(C)(C)C)c1OC` [I-189] gave a pIC50 under setting [2] of 9.00.

As for `COc1c(C(=O)Nc2ccc(N(C)C)cc2)cc(-c2ccc[nH]c2=O)cc1C(C)(C)C` [I-41], the pIC50 under setting [3] is 5.82.

`CN(C(=O)c1ccc(NS(C)(=O)=O)cc1)c1cc(-c2ccc[nH]c2=O)cc(C(C)(C)C)c1` [I-293, N-[3-tert-Butyl-5-(2-oxo-1,2-dihydro-pyridin-3-yl)-phenyl]-4-methanesulfonylamino-N-methyl-benzamide] gave a pIC50 under setting [3] of 8.15.

Under setting [3], `COc1c(CCc2ccc(NS(C)(=O)=O)cc2)cc(-c2cc(Cl)c[nH]c2=O)cc1C(C)(C)C` [I-95, N-(4-{2-[3-tert-Butyl-5-(5-chloro-2-oxo-1,2-dihydro-pyridin-3-yl)-2-methoxy-phenyl]-ethyl}-phenyl)-methanesulfonamide] had a pIC50 of 7.77.

In turn, `COc1c(/C=C/c2ccccc2F)cc(-c2ccc[nH]c2=O)cc1C(C)(C)C` [I-237, 3-{3-tert-Butyl-5-[(E)-2-(2-fluoro-phenyl)-vinyl]-4-methoxy-phenyl}-1H-pyridin-2-one] gave a pIC50 under setting [2] of 7.89.

Regarding `CC(C)(C)c1cc(CCc2ccc(NS(C)(=O)=O)cn2)c(O)c(-c2ccc[nH]c2=O)c1` [I-214, N-(6-{2-[5-tert-butyl-2-hydroxy-3-(2-oxo-1,2-dihydro-pyridin-3-yl)-phenyl]-ethyl}-pyridin-3-yl)-methanesulfonamide], the pIC50 by setting is: under setting [2], 8.70; under setting [3], 8.30.

`COc1c(C(=O)NCc2ccc(N(C)C)cc2)cc(-c2ccc[nH]c2=O)cc1C(C)(C)C` [I-40] showed a pIC50 under setting [3] of 5.80.

`COc1c(/C=C/c2ccc(NS(C)(=O)=O)cc2)cc(-c2ccc[nH]c2=O)cc1C(C)(O)C(F)(F)F` (centres unmarked) [I-180] had a pIC50 under setting [3] of 8.30.

Regarding `COc1c(/C=C/c2ncc(NS(C)(=O)=O)cc2C)cc(-c2ccc[nH]c2=O)cc1C(C)(C)C` [I-213, N-(6-{(E)-2-[3-tert-Butyl-2-methoxy-5-(2-oxo-1,2-dihydro-pyridin-3-yl)-phenyl]-vinyl}-5-methyl-pyridin-3-yl)-methanesulfonamide], the pIC50 under setting [2] is 8.52.

For the compound `CC(C)(CO)c1cc(/C=C/c2ccc(NS(C)(=O)=O)cc2)cc(-c2ccc[nH]c2=O)c1` [I-272, N-(4-{(E)-2-[3-(2-Hydroxy-1,1-dimethyl-ethyl)-5-(2-oxo-1,2-dihydro-pyridin-3-yl)-phenyl]-vinyl}-phenyl)-methanesulfonamide], the pIC50 under setting [2] was 8.22.

Under setting [3], `COc1c(C(=O)Nc2cccc(NS(C)(=O)=O)c2)cc(-c2ccc[nH]c2=O)cc1C(C)(C)C` [I-259, 3-tert-Butyl-N-(3-methanesulfonylamino-phenyl)-2-methoxy-5-(2-oxo-1,2-dihydro-pyridin-3-yl)-benzamide] had a pIC50 of 6.91.
